Assays:
male genitals = test: Irritation test on male genitals / urethra; conditions: gel in K-Y Lubricating Jelly, about 5% w/v; passive and active rubbing
Method: In all examples, the test subjects were a monogamous married couple, free of genital herpes and all other known sexually transmitted viruses.
The mixture of zinc acetate in K-Y Lubricating Jelly was tested on the male genitals, passively at first and then with active rubbing.
About 0.5 grams were dissolved in several drops of distilled water and tested on the forearm and genitals.

HIV = HIV infectivity tests with zinc acetate 1.5% (diluted and undiluted viral stocks, p24 ELISA); assay type: cell-based, HIV-1
Source text: The tests described above, in Example 8, used an undiluted high-titer viral stock, which contained at least ten million infectious viral particles per ml. That concentration can be achieved in a laboratory only by special culturing, purification, and concentration techniques, and it is vastly higher than would actually occur in the ejaculate of an HIV-infected person (especially someone who is not in the end stages of the disease, and who might pose a significant risk of transmitting the virus to an unknowing sexual partner).
These tests used serial dilutions of the viral stocks, at ranges from 1:10 to 1:10,000. To create the 1:10 dilution, 500 μl of viral stock was mixed with 4.5 ml of RPMI medium. Subsequent dilutions added 9 ml of RPMI medium to 1 ml from the preceding dilution.
A 2 ml aliquot from each dilution was mixed with an equal volume of 3% ZnAc dissolved in sterile distilled water; after mixing, the zinc concentration was 5.3 mg/ml Zn. These mixtures were incubated for 2 hours, then diluted with culture medium at 1:30, 1:100, and 1:1000 to reduce the toxicity of the zinc to lymphocytes. Four ml of lymphocytes were mixed with 4 ml of each zinc/virus mixture. The zinc/virus/cell mixtures were incubated at 37° C. for 3 hours; zinc concentrations were 88, 27, and 2.7 μg/ml in the 30, 100, and 1000 dilutions.
Following the 3 hour incubation, the cells were washed twice in RPMI medium and resuspended in fresh medium containing 10% FCS. Each solution was inoculated (2 ml; estimated minimum 2×10^5 cells per well) into each of three wells in a 12-well plate and cultured for 27 days, with periodic sampling and measuring of p24 antigens.
Positive controls used 1:1000 dilutions of viral stock mixed with zinc-free RPMI. These controls were consistently highly infectious, even though their concentrations were 100× lower than the 1:10 mixtures in which infectivity was eliminated by zinc treatment. Other positive controls were tested at up to 100,000× dilutions; these were highly infective in two out of the three plates tested.
While carrying out the viral dilution tests, tests were also performed using 2 ml of 3% ZnAc solution in distilled water mixed with 2 ml aliquots of undiluted viral stock. The zinc/virus mixtures were incubated for 2 hours, diluted with RPMI at 1:100 and 1:1000 ratios, and mixed with lymphocytes for three hours; zinc concentrations were 27 and 2.7 μg/ml. The cells were washed twice, inoculated into 12 well plates as described above, and cultured for 27 days.

[1] = water; cited from earlier work

Zinc acetate
irritation, male genitals (male genitals): no irritation
HIV infectivity (HIV; 10×, 100×, 1000× diluted stocks, zinc/virus diluted 1:1000 (2.7 μg/ml Zn)): completely blocked infectivity
HIV infectivity (HIV; diluted stocks, zinc/virus diluted 1:100 (27 μg/ml Zn)): viral infectivity was completely blocked
HIV infectivity (HIV; diluted viral stocks, 1.5% zinc acetate 2 h): completely eliminated
HIV infectivity (HIV; diluted viral stocks, 1.5% zinc acetate 2 h, listed as ZnAc): completely eliminated the infectivity
HIV infectivity (FIG. 4) (HIV; high-titer stocks, various concentrations of zinc acetate): either eliminated or suppressed
HIV infectivity (HIV; undiluted stock, zinc/virus diluted 1:100 (27 μg/ml Zn), 27 days): completely prevented infectivity
HIV infectivity (HIV; undiluted stock, zinc/virus diluted 1:1000 (2.7 μg/ml Zn), 27 days): delayed the onset of infection
Molar solubility [1]: 1.64
Solubility [1]: 300

— patent publication US6321750A, “Condom lubricants with zinc salts as anti-viral additives” (priority 1999, dated 2001)
